Results on two molecules are retold here after patent US12181483B2, “Kit comprising antibody binding acrolein-protein conjugate for diagnosing nephropathy” (National Yang Ming Chiao Tung University, priority 2022, dated 2024).

One data set concerns mice. Description: Acrolein-treated animal model (oral gavage) compared with vehicle control: glucose handling, renal function, kidney histology. In kind it is in vivo. The protocol: To investigate the role of acrolein in the pathogenesis of diabetic nephropathy (DN), we compared the renal function of HFD/STZ-induced DN mice and mice treated with acrolein (2.5 mg/kg, p.o.) as shown in FIG. 2A.
We further explored the pathological abnormalities in HFD/STZ-induced DN mice and acrolein-treated mice.

In data set [1] the test system is acrolein-modified BSA (Acr-BSA) or acrolein-modified OVA (Acr-OVA). The data set can be described thus: ELISA of hybridoma clones / purified Acr-PC antibody against acrolein-modified proteins. In kind it is binding. As to the method:
Monoclonal antibody preparation. Female BALB/c mice were immunized three times with the acrolein-treated ovalbumin (Acr-OVA). Spleen cells from the immunized mice were fused with NS0 murine myeloma cells and cultured in a hypoxantineyamethopterinythymidine selection medium. Culture supernatants of the hybridoma were screened using an ELISA assay, pairs of wells in the microtiter plates on which acrolein-treated BSA (Acr-BSA) was absorbed. After being incubated with 100 μl of hybridoma supernatants and washed with Tris-buffered saline (TBS) containing 0.05% Tween 20 (TBST), the wells were incubated with HRP-conjugated goat anti-mouse IgG, followed by a substrate solution containing TMB. Hybridoma cells corresponding to supernatants that were positive on Acr-BSA or Acr-OVA and negative on BSA or OVA were then cloned by limiting dilutions. After the repeated screening, five clones were obtained. […] After antibody purification from hybridoma clone #5, we confirmed the specificity and examined the antibody titer using a similar ELISA assay described above.
In general terms: In an ELISA, binding on a coated surface is turned into a signal by an enzyme label.

Setting [2] is: mice kidney, acrolein group vs control group (FIG. 2I).
Setting [3] is: mice, acrolein group vs control group (FIG. 2I).
Where [4] appears, read: antibody purified from hybridoma clone #5 (FIG. 3B).

`C=CC=O` [acrolein]: in the data set on mice (setting [2]), the “collagen fiber content and degree of fibrosis, Sirius red staining” value is listed as “increased evidently”; the “positive immunohistochemical staining for Acr-PC in the glomeruli and renal tubules” value was “significantly increased”. The “insulin intolerance, insulin tolerance tests (ITT)” value in the data set on mice (mice, acrolein 2.5 mg/kg p.o., 16 weeks, severity not as high as in HFD/STZ mice (FIGS. 2D-E)) is on record as “induced insulin intolerance”. Moreover, the “blood glucose (fasting plasma glucose)” value in the data set with mice (mice, acrolein 2.5 mg/kg p.o., oral gavage for 16 weeks, vs control group (FIG. 2B)) is recorded as “did not increase blood glucose”. For the same molecule, in the data set on mice (setting [3]), the “kidney histology, H&E staining” value is “disorderly, inflammatory cell infiltration in the interstitium and vacuolar lesion in the epithelial cells”; the “kidney histology, PAS staining” value is “glomerular mesangium expansion and extracellular matrix deposition”. Moreover, the “urine albumin/creatinine ratio (UACR)” value in the data set with mice (mice, oral gavage of acrolein for 12 weeks (FIG. 2F)) was “increased UACR, although not significantly”. In addition, the “urine albumin/creatinine ratio (UACR)” value in the data set on mice (mice, oral gavage of acrolein for 16 weeks, vs control group (FIG. 2F)) was “significant increase”. Also, in the data set with mice (mice, oral gavage of acrolein for 16 weeks, vs control group (FIG. 2G)), the “uric acid (UA)” value is reported as “significant increase”. Moreover, the “blood urea nitrogen (BUN)” value in the data set with mice (mice, oral gavage of acrolein for 16 weeks, vs control group (FIG. 2H)) is “significant increase”.

B1: clone #5: monoclonal antibody purified from hybridoma clone #5 recognizing acrolein-protein conjugate; heavy chain SEQ ID NO:1, light chain SEQ ID NO:2 (antibody, listed as Mus musculus, V domains shown)
VH: QVQLQESGAELARPGASVRLSCKASGNIFPDHSINWVKQRTGQGLEWIGEIFHGSGNTYYNEKFKGKATLTADKSSTTVYLQLTSLTSEDSAVYFCARWVYGSSFFDVWGAGTTVTVSSAKTTPPSVYPLAP
VL: DIVLTQTPASLAVSLGQTITIFCRASESVEYYGTNLMQWYQQKPGQPPRVLIYGASNVESGVPARFSGSGSGTDFSLNILPVEEDDIAMYFCQQSRKVPWTFGGGTKLEIKRADAAPTV
For B1, in data set [1] (setting [4]), the “antibody titer in ELISA” value is listed as “high” and the “specificity in ELISA” value is “high specificity”. Moreover, the “recognition of Acr-BSA or Acr-OVA in ELISA” value in data set [1] (hybridoma supernatant, among five clones (#1 to #5) (FIG. 3A)) was “most distinctive recognition of Acr-BSA or Acr-OVA”.
